Measurements as given in paper PMC7933325, “Neolignans and Norlignans from Insect Medicine Polyphaga plancyi and Their Biological Activities” (Natural Products and Bioprospecting, 2020).

Key:
Assay in all cases: kinase inhibition assay (method cited to earlier paper)
Type in all cases: biochemical
[1] = target: DDR1 (Homo sapiens, UniProt Q08345)
[2] = target: T1, JAK3 (Homo sapiens, UniProt P52333)
T1 sequence (P52333 1-1124): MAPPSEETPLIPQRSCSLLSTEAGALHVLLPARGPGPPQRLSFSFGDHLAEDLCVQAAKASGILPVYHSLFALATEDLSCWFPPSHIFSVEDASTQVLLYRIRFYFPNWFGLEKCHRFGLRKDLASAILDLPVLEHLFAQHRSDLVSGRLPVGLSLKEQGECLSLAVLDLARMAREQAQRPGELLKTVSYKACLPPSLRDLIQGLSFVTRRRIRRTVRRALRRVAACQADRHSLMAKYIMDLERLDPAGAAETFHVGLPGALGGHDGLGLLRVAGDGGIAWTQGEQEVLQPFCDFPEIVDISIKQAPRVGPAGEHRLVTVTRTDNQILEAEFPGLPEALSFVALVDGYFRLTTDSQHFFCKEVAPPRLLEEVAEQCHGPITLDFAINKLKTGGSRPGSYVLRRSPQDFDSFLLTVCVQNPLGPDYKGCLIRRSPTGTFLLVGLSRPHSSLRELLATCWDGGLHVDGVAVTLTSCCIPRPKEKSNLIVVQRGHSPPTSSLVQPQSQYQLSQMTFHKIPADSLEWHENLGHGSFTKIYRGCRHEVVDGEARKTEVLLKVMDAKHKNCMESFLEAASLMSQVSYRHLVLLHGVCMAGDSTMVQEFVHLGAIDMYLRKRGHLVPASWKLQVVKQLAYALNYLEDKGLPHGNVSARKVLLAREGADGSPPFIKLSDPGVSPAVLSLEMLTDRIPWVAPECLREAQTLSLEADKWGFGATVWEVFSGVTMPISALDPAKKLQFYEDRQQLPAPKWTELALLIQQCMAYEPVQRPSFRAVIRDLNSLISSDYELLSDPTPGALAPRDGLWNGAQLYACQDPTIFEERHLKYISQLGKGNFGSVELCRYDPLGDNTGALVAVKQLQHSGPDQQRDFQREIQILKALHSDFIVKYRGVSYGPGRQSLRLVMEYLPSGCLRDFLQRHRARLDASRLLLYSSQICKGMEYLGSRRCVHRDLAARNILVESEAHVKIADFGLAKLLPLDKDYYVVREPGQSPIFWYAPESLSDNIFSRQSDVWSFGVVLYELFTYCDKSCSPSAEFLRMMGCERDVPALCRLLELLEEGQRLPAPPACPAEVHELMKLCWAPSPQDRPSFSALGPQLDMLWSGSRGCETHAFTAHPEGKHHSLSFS

[3] = target: ROCK2 (Homo sapiens, UniProt O75116)
ROCK2, sequence (O75116 whole entry): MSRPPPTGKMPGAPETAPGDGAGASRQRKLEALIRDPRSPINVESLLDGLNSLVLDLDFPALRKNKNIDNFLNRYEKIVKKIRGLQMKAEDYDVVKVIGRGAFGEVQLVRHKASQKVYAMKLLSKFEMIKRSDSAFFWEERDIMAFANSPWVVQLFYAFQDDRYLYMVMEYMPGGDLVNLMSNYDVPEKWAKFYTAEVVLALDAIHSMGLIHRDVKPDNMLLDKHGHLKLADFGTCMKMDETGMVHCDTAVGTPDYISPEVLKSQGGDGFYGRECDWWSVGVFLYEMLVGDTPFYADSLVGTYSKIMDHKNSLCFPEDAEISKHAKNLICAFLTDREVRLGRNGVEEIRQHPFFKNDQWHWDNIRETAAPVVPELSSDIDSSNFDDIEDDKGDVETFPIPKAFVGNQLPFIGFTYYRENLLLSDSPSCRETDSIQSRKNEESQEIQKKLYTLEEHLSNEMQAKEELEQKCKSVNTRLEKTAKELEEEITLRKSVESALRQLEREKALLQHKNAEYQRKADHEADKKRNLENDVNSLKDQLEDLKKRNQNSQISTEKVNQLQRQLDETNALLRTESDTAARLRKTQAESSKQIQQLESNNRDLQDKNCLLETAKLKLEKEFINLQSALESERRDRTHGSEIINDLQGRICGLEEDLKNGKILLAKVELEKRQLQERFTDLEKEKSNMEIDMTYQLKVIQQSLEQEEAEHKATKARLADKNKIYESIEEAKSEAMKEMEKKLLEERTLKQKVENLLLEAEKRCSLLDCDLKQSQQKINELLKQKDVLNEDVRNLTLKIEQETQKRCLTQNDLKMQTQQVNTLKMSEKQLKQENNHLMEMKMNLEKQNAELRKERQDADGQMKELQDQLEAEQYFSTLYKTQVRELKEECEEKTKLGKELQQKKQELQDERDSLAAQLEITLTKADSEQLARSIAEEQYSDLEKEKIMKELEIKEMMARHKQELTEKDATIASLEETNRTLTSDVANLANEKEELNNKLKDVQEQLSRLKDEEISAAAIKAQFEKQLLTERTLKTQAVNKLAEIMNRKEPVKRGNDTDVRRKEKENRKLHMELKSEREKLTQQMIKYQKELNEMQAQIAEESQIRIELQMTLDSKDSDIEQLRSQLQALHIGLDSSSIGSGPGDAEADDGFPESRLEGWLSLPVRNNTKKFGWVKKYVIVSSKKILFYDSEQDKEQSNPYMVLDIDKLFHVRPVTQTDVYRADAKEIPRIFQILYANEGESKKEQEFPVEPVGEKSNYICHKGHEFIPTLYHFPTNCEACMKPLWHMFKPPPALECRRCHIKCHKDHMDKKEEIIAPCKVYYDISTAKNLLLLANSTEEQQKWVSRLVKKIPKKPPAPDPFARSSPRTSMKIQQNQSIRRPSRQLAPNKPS

DDR1, sequence (Q08345 19-913): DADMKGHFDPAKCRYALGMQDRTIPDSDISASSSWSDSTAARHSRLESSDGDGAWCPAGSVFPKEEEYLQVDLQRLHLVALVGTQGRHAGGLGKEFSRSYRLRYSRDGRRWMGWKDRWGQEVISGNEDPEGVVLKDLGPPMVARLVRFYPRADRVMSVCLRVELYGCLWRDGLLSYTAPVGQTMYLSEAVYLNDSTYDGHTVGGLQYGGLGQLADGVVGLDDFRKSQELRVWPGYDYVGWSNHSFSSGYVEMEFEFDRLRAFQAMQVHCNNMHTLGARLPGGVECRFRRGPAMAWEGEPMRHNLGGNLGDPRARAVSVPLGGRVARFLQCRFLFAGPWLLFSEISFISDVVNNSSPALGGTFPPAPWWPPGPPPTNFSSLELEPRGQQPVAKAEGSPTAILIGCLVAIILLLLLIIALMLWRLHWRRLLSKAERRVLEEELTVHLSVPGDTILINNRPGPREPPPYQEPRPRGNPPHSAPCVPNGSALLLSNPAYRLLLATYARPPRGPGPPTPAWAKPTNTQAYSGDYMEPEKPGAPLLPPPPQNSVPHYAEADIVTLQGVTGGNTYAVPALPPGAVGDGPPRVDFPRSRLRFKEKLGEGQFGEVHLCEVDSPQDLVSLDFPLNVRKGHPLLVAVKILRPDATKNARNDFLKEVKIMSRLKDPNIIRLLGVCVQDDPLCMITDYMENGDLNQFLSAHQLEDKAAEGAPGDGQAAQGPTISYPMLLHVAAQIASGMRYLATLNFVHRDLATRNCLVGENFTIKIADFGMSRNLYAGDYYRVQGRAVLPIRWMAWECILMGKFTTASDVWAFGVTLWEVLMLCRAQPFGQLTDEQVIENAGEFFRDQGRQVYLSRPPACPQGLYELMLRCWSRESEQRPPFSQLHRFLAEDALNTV

| IC50 [1] [µM] | IC50 [2] [µM] | IC50 [3] [µM] | Compound |
| --- | --- | --- | --- |
| 23.9 | 9.35 |  | OC[C@H]1OC[C@H](c2ccc(O)c(O)c2)c2cc(O)c(O)cc21 (stereo in doubt) [(+)-9, (+)-Periplanol A] |
| 22.9 | 4.59 |  | OC[C@@H]1OC[C@@H](c2ccc(O)c(O)c2)c2cc(O)c(O)cc21 (stereo in doubt) [(−)-9, (−)-Periplanol A] |
|  | 9.17 | 27.1 | Cc1ccc(O)c(-c2cc(CC(=O)O)ccc2O)c1 [compound 6, Plancyin F] |
